# Test results taken from publication PMC11109052, “Metabolism characterization and toxicity of N-hydap, a marine candidate drug for lung cancer therapy by LC–MS method” (Natural Products and Bioprospecting, 2024).
# Columns and labels:
# CYP2C19 = assay: DME activity ex vivo in MLMs and MKMs: CYP2C19 (4-OH-MP from MP); set-up: species or system mice; key to CYP2C19 Enzymatic activity: ↑: up-regulation; ↓: down-regulation; –: no change
# Method: (§1) Mice were randomly divided into four groups, with eight animals in each group. The mice received oral pretreatment with N-hydap for 7 days at doses of 2, 5, and 10 mg/kg/day, which were considered as the low dose, medium dose, and high dose, respectively. Correspondingly, the control group received PBS. On the 8th day, the liver and kidneys were removed, and organs from eight mice per group were combined to prepare MLMs and MKMs using the detailed procedures above. Subsequently, we determined the activity of CYP and UGT enzymes by specific substrate metabolized with MLMs (0.5 mg/mL) and MKMs (0.2 mg/mL) in vitro. Specifically, the following selective substrates were used for the respective enzymes: PH (1 μM) for CYP1A2, DIC (1 μM) for CYP2C9, MP (90 μM) for CYP2C19, DM (1 μM) for CYP2D6, CZX (10 μM) for CYP2E1, Tes (1 μM) for CYP3A4, SN38 (1 μM) for UGT1A1, CACD (100 μM) for UGT1A3, Sero (20 μM) for UGT1A6, and Prop (1 μM) for UGT1A9. All substrates were dissolved in methanol or DMSO. The incubation procedure was carried out as mentioned above, and the reaction was terminated with VER (20 ng/mL) in ESI+ mode and CLP (200 ng/mL) in ESI− mode. In the ex vivo experiments, the activity of enzymes was measured by quantifying the production of various metabolites (nM/mg protein/min). The metabolites and their corresponding enzymes are as follows: APAP from PH, 4-OH-DIC from DIC, 4-OH-MP from MP, DXO from DM, 6-OH-CZX from CZX, 6-OH-Tes from Tes, SN38-G from SN38, CACD-G from CACD, Sero-G from Sero, Prop-G from Prop. The measurements were performed using multiple reaction monitoring (MRM) transitions, which are specific mass spectrometry transitions used for quantification. The optimized parameters for each metabolite, such as declustering potential and collision energy, were described in Supplementary Table 1. All experiments were conducted in triplicate, to ensure accuracy and reproducibility.
# MLMs = assay: Kinetics of N-hydap glucuronidation in MLMs; format: in vitro ADME, mouse; details: MLM
# Method: In this study, the rats were executed by drawing blood from the abdominal aorta and mice were sacrificed with cervical dislocation before the liver and kidneys were excised. The liver and kidneys were removed, and washed with chilled cleansing solution (contains 8 mM KH2PO4, 5.6 mM EDTA·K2·2H2O, 1 mM DTT and 229.6 μM PMSF), homogenized in a tissue homogenate buffer with a pH of 7.4, (consisting of […], 8 mM K2HPO4, 250 mM sucrose, 1 mM EDTA·K2·2H2O and 229.6 μM PMSF). Subsequently, the homogenate was centrifuged at 10,400 rpm at 4 °C for 15 min, and the supernatant was then centrifuged at 35,000 rpm at 4 °C for 60 min. A 250 mM sucrose buffer was added to the pellet to reconstitute and the resuspension was stored at − 80 °C until use. Microsome protein concentrations were measured by Omni-Easy™ Instant BCA Protein Assay Kit.
# Various microsomes including HLMs, HKMs, HIMs, RLMs, RKMs, MLMs and MKMs were involved in CYP and UGT reactions of N-hydap. […]
# (§2) The substrate concentrations used for HLMs were 0.05, 0.5, 2, 2.5, 5, 10, 25, 50, and 100 μM. […] The rates of N-hydap-G by enzymes were expressed as nmol/mg/min, representing the amount of metabolites formed per minute per milligram of protein. Kinetic parameters were determined by analyzing the Eadie–Hofstee plots. […]
# UGT1A3 = assay: DME activity ex vivo in MLMs and MKMs: UGT1A3 (CDCA-G); set-up: species or system mice
# Method: as §1, with “The incubation procedure was carried out as mentioned above, and the reaction was terminated with VER (20 ng/mL) in ESI+ mode and CLP (200 ng/mL) in ESI− mode.” left out, “The metabolites and their corresponding enzymes are as follows: APAP from PH, 4-OH-DIC from DIC, 4-OH-MP from MP, DXO from DM, 6-OH-CZX from CZX, 6-OH-Tes from Tes, SN38-G from SN38, CACD-G from CACD, Sero-G from Sero, Prop-G from Prop.” left out, “The optimized parameters for each metabolite, such as declustering potential and collision energy, were described in Supplementary Table 1. All experiments were conducted in triplicate, to ensure accuracy and reproducibility.” left out
# HKMs = assay: Kinetics of N-hydap glucuronidation in HKMs; format: in vitro ADME, human; details: HKM
# Method: Various microsomes including HLMs, HKMs, HIMs, RLMs, RKMs, MLMs and MKMs were involved in CYP and UGT reactions of N-hydap. A typical CYP incubation mixture included 0.5 mg/mL microsomes protein, 3.3 mM glucose-6-phosphate, 3.3 mM MgCl2, 0.4 U/mL glucose-6-phosphate dehydrogenase, and N-hydap (1, 2.5, or 10 μM) in the 50 mM potassium phosphate buffer (KPI, pH 7.4). The incubation mixture was preincubated at 37 °C for 5 min, and the reaction was started by adding NADP to form a NADPH-regenerating system. Simultaneously, the classic UGT reaction system consisted of 50 mM KPI, 5 mM MgCl2, 0.5 mg/mL microsomes, 0.125 mg/mL alamethicin, and 5.25 mg/mL saccharolactone. The reaction was initiated after supplying UDPGA. The CYP and UGT mixtures were incubated at 37 °C in a shaking water bath (80 rpm) for 1.5 h to enhance metabolite formation. To terminate the reaction, an ice-cold solution of Tes (50 ng/mL, dissolved in methanol and used as an internal standard) was added to half of the mixture volume. […]
# as §2
# CYP3A4 = assay: Western blot protein level after 7 days gavage: CYP3A4; format: in vivo; details: mice, p.o. 7 days; liver and kidney (either tissue)
# Method: Mice were randomly divided into four groups, with eight animals in each group. The mice received oral pretreatment with N-hydap for 7 days at doses of 2, 5, and 10 mg/kg/day, which were considered as the low dose, medium dose, and high dose, respectively. Correspondingly, the control group received PBS. On the 8th day, the liver and kidneys were removed, and organs from eight mice per group were combined to prepare MLMs and MKMs using the detailed procedures above. Subsequently, we determined the activity of CYP and UGT enzymes by specific substrate metabolized with MLMs (0.5 mg/mL) and MKMs (0.2 mg/mL) in vitro. […] In the ex vivo experiments, the activity of enzymes was measured by quantifying the production of various metabolites (nM/mg protein/min). […] The measurements were performed using multiple reaction monitoring (MRM) transitions, which are specific mass spectrometry transitions used for quantification. […]
# After 7 days of N-hydap gavage, the liver and kidney tissues were lysed using RIPA buffer supplemented with a 1% protease inhibitor cocktail. […] Western blot signals were detected using an ECL chemiluminescence detection agent. The relative intensity of each protein band was scanned and quantified using Image J software.
smiles,measurement,setting,value
"CC1CCC2C(C=CC(C)C2C(=O)c2c(O)c(C3(O)CCC(O)C4OC43)cn(O)c2=O)C1 (centres unmarked) [N-hydap, N-Hydroxyapiosporamide]",CYP2C19 Enzymatic activity,CYP2C19; Kidney,–
same,CYP2C19 Enzymatic activity,CYP2C19; Liver,↓
same,reduction of formation rate of 4-OH-MP vs control,CYP2C19; liver microsomes of mice pretreated 7 days p.o.,33%
same,Km,MLMs,263 µM
same,elevation of formation rate of CDCA-G,"UGT1A3; MLMs and MKMs, range stated jointly for APAP, SN38-G, 6-OH-Tes and CDCA-G",12%-331%
same,catalytic activity of UGT1A3,UGT1A3; after 7 days of oral administration,significantly increased
same,Km,HKMs,240 µM
same,protein levels of CYP3A4,CYP3A4,no significant changes
